Literature values, collected in patent EP1151755B1, “Pharmaceutical compositions comprising cyclosporin as active ingredient” (Panacea Biotec Limited, priority 2000, dated 2001).

Test system: normal epithelial tissue and Peyer's patch tissue of guinea pigs
Settings: in vitro; compared to the commercially available drinking solution

Choleic acid
factor by which absorption of Cyclosporine was raised: 5-6
